# Reference: patent US11697648B2, “Fused pyrimidine pyridinone compounds as JAK inhibitors” (THERAVANCE BIOPHARMA R&D IP, LLC, priority 2019, dated 2023)
# Experiments:
# Tyk2 = Tyk2 (Homo sapiens (Human), UniProt P29597); experiment: Biochemical Tyk2 kinase assay (LanthaScreen)
# Summary of the method: (§1)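 GST-JAK + GFP-STAT1 peptide, HEPES pH 7.5/MgCl2/EGTA/Brij-35 buffer; cpd preincubation 1 h RT; ATP start, 1 h RT; stop with 10 mM EDTA + 2 nM Tb-anti-pSTAT1; TR-FRET 520/495. 4-parameter IC50 → pKi (Cheng-Prusoff).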
# JAK1 = JAK1 (Homo sapiens (Human), UniProt P23458); experiment: Biochemical JAK1 kinase assay (LanthaScreen)
# Chain of JAK1 (P23458 whole entry): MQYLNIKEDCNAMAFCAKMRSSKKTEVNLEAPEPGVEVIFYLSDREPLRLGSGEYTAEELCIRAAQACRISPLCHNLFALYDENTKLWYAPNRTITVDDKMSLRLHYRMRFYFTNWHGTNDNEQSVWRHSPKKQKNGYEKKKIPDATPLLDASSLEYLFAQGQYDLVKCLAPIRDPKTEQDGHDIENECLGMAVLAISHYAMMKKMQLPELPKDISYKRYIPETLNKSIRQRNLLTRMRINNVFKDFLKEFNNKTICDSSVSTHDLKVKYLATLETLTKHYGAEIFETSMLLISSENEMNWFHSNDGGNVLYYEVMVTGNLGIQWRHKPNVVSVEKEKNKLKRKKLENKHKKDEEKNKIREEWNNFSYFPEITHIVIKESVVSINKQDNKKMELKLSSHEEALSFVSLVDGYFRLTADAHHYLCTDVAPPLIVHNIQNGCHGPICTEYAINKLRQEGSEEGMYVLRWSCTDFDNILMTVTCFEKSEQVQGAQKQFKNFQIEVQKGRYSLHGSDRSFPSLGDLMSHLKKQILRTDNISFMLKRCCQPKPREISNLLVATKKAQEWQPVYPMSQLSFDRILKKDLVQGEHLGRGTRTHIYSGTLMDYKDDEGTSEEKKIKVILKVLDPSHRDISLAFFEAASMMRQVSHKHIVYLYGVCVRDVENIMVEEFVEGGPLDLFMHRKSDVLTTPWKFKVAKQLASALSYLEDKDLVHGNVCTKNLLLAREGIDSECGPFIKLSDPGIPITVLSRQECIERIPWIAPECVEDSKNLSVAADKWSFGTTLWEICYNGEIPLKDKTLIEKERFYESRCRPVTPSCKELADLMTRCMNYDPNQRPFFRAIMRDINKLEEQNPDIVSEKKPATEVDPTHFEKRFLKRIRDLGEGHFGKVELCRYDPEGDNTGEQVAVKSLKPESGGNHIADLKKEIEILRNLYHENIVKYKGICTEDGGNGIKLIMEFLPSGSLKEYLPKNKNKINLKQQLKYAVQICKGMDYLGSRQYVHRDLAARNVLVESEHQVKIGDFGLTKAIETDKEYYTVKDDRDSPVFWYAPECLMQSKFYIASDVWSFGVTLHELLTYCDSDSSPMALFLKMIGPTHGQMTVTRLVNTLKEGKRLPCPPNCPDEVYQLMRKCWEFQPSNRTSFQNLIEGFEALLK
# Summary of the method: as §1
# [1] = test system: IL-2 stimulated STAT5 phosphorylation in Tall-1 human T cell line (JAK3); experiment: Cellular JAK3 potency assay: inhibition of IL-2 stimulated pSTAT5 in Tall-1 T cells; assay type: cell-based; settings: IL-2 stimulated pSTAT5, Tall-1 T cells
# Summary of the method: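 AlphaLISA SureFire Ultra measures STAT5 Tyr694/699 phosphorylation in lysed Tall-1 human T cells. Cells were exposed to compound for 1 h at 37 °C before a 30 min IL-2 challenge (300 ng/ml final). Values are pIC50 means with standard deviation from signal-versus-concentration curves.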
# JAK3 = JAK3 (Homo sapiens (Human), UniProt P52333); experiment: Biochemical JAK3 kinase assay (LanthaScreen); settings: for JAK3 (pKi)-JAK1 (pKi): selectivity JAK3 over JAK1, difference of pKi
# Chain of JAK3 (P52333 whole entry): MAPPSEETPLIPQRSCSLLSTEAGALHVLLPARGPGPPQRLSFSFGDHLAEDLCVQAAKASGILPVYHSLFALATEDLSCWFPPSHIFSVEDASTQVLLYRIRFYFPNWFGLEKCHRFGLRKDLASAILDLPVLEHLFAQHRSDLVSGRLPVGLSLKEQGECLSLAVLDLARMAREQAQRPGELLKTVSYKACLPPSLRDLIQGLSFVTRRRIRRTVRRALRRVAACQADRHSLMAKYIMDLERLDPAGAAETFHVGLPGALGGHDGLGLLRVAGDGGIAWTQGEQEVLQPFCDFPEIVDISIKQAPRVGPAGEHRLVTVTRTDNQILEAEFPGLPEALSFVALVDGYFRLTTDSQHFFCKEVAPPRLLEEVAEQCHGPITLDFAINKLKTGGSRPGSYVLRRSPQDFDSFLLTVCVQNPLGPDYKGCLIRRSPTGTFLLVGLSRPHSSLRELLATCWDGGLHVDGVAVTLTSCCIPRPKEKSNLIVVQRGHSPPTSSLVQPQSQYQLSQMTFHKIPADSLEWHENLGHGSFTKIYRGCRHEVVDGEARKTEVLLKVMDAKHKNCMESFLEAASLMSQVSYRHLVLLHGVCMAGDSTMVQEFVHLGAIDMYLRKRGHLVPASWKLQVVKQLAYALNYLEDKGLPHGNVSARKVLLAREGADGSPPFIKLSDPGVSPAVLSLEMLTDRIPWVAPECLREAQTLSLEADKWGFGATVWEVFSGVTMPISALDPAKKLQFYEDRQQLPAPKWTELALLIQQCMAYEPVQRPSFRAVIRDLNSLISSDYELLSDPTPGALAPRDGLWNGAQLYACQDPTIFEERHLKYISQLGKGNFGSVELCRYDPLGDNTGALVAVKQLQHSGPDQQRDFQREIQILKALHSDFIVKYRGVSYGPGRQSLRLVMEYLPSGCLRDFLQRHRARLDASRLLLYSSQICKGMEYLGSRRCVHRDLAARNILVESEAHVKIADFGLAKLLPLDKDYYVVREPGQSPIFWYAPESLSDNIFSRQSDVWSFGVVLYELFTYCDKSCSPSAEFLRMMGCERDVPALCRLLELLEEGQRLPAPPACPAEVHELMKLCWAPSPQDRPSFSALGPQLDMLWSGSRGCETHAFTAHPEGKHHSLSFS
# Summary of the method: as §1
# Caco-2 cell monolayers = experiment: Caco-2 permeation assay; assay type: in vitro ADME; settings: 5 μM, A-B direction, with Verapamil (25 μM)
# Summary of the method: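 Passive A-to-B permeability with P-gp inhibited by verapamil (25 μM); compound at 5 μM, n=2. Both compartments sampled at t0 and t120 and quantified by LC-MS/MS, giving apparent permeability in cm/sec from flux, area and concentration.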
# JAK2 = JAK2 (Homo sapiens (Human), UniProt O60674); experiment: Biochemical JAK2 kinase assay (LanthaScreen)
# Chain of JAK2 (O60674 whole entry): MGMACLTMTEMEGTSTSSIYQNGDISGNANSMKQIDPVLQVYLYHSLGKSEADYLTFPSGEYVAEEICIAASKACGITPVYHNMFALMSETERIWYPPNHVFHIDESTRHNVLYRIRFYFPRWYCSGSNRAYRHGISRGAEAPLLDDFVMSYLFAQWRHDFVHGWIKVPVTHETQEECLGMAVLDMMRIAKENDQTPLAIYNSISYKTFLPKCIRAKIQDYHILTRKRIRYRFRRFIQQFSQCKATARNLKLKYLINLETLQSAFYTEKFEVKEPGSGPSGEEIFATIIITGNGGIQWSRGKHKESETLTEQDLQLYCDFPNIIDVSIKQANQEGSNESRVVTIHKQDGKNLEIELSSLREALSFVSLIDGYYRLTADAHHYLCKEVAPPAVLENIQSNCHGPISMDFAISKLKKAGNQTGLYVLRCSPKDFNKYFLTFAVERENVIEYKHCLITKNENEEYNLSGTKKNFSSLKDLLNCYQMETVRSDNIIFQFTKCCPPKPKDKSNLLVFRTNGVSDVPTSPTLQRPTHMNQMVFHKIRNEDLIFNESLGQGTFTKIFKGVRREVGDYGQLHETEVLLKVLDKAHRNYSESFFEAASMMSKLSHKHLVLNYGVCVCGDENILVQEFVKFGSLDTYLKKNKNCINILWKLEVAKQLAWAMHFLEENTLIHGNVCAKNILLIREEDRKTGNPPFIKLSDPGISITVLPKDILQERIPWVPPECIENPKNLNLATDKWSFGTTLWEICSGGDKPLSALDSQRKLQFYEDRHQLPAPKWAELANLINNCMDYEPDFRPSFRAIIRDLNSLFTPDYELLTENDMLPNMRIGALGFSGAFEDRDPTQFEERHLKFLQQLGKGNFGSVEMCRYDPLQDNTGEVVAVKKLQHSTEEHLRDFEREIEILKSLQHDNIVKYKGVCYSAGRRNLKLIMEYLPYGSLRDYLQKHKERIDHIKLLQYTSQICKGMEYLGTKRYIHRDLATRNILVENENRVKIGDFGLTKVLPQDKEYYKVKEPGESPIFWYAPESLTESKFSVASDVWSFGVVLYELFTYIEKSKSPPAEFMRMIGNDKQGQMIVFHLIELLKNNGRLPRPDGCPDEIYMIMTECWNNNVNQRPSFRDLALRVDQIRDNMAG
# Summary of the method: as §1
# Chain of Tyk2 (P29597 whole entry): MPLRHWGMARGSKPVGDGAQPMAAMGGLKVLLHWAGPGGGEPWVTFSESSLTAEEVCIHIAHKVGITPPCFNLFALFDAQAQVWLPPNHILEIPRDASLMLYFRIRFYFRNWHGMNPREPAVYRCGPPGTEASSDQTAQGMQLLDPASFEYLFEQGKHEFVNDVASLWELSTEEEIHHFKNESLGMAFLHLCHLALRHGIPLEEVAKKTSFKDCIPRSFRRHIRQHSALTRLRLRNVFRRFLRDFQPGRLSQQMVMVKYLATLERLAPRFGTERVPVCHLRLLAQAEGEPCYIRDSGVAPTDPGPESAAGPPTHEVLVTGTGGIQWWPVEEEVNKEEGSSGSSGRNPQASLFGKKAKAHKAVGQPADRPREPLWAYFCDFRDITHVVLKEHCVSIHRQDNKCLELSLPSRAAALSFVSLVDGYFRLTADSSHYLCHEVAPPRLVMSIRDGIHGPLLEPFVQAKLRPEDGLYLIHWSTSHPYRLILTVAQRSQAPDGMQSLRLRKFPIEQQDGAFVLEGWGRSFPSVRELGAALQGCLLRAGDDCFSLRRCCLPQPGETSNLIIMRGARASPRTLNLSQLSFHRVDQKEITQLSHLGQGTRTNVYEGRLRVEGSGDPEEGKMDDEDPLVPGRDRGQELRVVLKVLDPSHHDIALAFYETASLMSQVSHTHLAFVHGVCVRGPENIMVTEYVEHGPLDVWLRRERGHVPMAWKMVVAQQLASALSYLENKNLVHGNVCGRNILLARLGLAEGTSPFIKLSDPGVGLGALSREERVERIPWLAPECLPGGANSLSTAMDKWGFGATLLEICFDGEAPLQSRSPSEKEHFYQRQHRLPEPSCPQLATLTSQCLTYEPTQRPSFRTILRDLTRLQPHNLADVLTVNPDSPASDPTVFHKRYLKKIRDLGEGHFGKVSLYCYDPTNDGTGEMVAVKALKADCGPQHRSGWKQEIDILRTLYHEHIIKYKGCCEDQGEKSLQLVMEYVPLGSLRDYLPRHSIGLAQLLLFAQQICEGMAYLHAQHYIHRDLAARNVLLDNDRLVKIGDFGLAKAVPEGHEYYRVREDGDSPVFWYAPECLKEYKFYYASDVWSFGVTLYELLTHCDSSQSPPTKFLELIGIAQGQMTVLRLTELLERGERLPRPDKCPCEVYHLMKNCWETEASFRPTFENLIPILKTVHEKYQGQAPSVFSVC
Structure (SMILES),Tyk 2 (pKi) (Tyk2),JAK 1 (pKi) (JAK1),Tall-1 (pIC50) [1],JAK 3 (pKi) (JAK3),JAK3 (pKi)-JAK1 (pKi) (JAK3),Caco Kp (Caco-2 cell monolayers),JAK 2 (pKi) (JAK2)
C=CC(=O)N1CCN(CCn2c(=O)ccc3cnc(Nc4cnn(C)c4)nc32)CC1 [Example 16],E (E represents a pKi value of 7 or below (Ki of 100 nM or above)),E (E represents a pKi value of 7 or below (Ki of 100 nM or above)),C (C represents a pIC50 value between 6 and 6.7 (IC50 between 1 μM and 200 nM)),B (B represents pKi value between 9 and 10 (Ki between 1 nM and 0.1 nM)),A (A represents a value of 3 or above),A (A represents a value below 5×10^−6 cm/sec),E (E represents a pKi value of 7 or below (Ki of 100 nM or above))
C=CC(=O)N1CCN(CCn2c(=O)ccc3cnc(Nc4ccc(N5CCN(S(C)(=O)=O)CC5)cc4)nc32)CC1 [Example 130],E (E represents a pKi value of 7 or below (Ki of 100 nM or above)),E (E represents a pKi value of 7 or below (Ki of 100 nM or above)),B (B represents a pC50 value between 6.7 (included) and 7.5 (IC50 between 200 nM and 32 nM)),B (B represents pKi value between 9 and 10 (Ki between 1 nM and 0.1 nM)),A (A represents a value of 3 or above),A (A represents a value below 5×10^−6 cm/sec),E (E represents a pKi value of 7 or below (Ki of 100 nM or above))
C=CC(=O)N1CC(CCn2c(=O)ccc3cnc(Nc4ccc(N5CCN(C(C)=O)C(C)(C)C5)cc4)nc32)C1 [Example 179],E (E represents a pKi value of 7 or below (Ki of 100 nM or above)),E (E represents a pKi value of 7 or below (Ki of 100 nM or above)),B (B represents a pC50 value between 6.7 (included) and 7.5 (IC50 between 200 nM and 32 nM)),A (A represents a pKi value≥10 (Ki≤0.1 nM)),A (A represents a value of 3 or above),C (C represents a value between 10×10^−6 and 30×10^−6 cm/sec),E (E represents a pKi value of 7 or below (Ki of 100 nM or above))
C=CC(=O)N1CC(CCn2c(=O)ccc3cnc(Nc4ccc(N5CCN(C)[C@H](C)C5)cc4)nc32)C1 [Example 162],E (E represents a pKi value of 7 or below (Ki of 100 nM or above)),E (E represents a pKi value of 7 or below (Ki of 100 nM or above)),A (A represents a pIC50 value≥7.5 (IC50≤32 nM)),A (A represents a pKi value≥10 (Ki≤0.1 nM)),A (A represents a value of 3 or above),C (C represents a value between 10×10^−6 and 30×10^−6 cm/sec),E (E represents a pKi value of 7 or below (Ki of 100 nM or above))
C=CC(=O)N1CCN(C(C)Cn2c(=O)ccc3cnc(Nc4ccc(N5CCN(C(C)=O)CC5)cc4)nc32)CC1 (stereo not shown) [Example 201],E (E represents a pKi value of 7 or below (Ki of 100 nM or above)),E (E represents a pKi value of 7 or below (Ki of 100 nM or above)),B (B represents a pC50 value between 6.7 (included) and 7.5 (IC50 between 200 nM and 32 nM)),B (B represents pKi value between 9 and 10 (Ki between 1 nM and 0.1 nM)),A (A represents a value of 3 or above),A (A represents a value below 5×10^−6 cm/sec),E (E represents a pKi value of 7 or below (Ki of 100 nM or above))
C=CC(=O)N1CC(CCn2c(=O)ccc3cnc(Nc4ccc(NS(C)(=O)=O)cc4)nc32)C1 [Example 69],E (E represents a pKi value of 7 or below (Ki of 100 nM or above)),E (E represents a pKi value of 7 or below (Ki of 100 nM or above)),B (B represents a pC50 value between 6.7 (included) and 7.5 (IC50 between 200 nM and 32 nM)),A (A represents a pKi value≥10 (Ki≤0.1 nM)),A (A represents a value of 3 or above),A (A represents a value below 5×10^−6 cm/sec),E (E represents a pKi value of 7 or below (Ki of 100 nM or above))
C=CC(=O)N1CC(CCn2c(=O)ccc3cnc(Nc4cccc(N5CCN(S(C)(=O)=O)CC5)c4)nc32)C1 [Example 127],E (E represents a pKi value of 7 or below (Ki of 100 nM or above)),E (E represents a pKi value of 7 or below (Ki of 100 nM or above)),B (B represents a pC50 value between 6.7 (included) and 7.5 (IC50 between 200 nM and 32 nM)),A (A represents a pKi value≥10 (Ki≤0.1 nM)),A (A represents a value of 3 or above),A (A represents a value below 5×10^−6 cm/sec),E (E represents a pKi value of 7 or below (Ki of 100 nM or above))
C=CC(=O)N1CC(CCn2c(=O)ccc3cnc(Nc4cnn(C5CCN(C(=O)CSC)CC5)c4)nc32)C1 [Example 210],E (E represents a pKi value of 7 or below (Ki of 100 nM or above)),E (E represents a pKi value of 7 or below (Ki of 100 nM or above)),B (B represents a pC50 value between 6.7 (included) and 7.5 (IC50 between 200 nM and 32 nM)),A (A represents a pKi value≥10 (Ki≤0.1 nM)),A (A represents a value of 3 or above),A (A represents a value below 5×10^−6 cm/sec),E (E represents a pKi value of 7 or below (Ki of 100 nM or above))
C=CC(=O)N1CCN(CCn2c(=O)ccc3cnc(Nc4ccc(N5CCN(C)CC5)cc4)nc32)[C@@H](CO)C1 [Example 193],E (E represents a pKi value of 7 or below (Ki of 100 nM or above)),E (E represents a pKi value of 7 or below (Ki of 100 nM or above)),B (B represents a pC50 value between 6.7 (included) and 7.5 (IC50 between 200 nM and 32 nM)),B (B represents pKi value between 9 and 10 (Ki between 1 nM and 0.1 nM)),A (A represents a value of 3 or above),A (A represents a value below 5×10^−6 cm/sec),E (E represents a pKi value of 7 or below (Ki of 100 nM or above))
C=CC(=O)N1CCN(CCn2c(=O)ccc3cnc(Nc4ccc(N5CCN(C(=O)N(C)C)CC5)cc4)nc32)[C@@H](CC)C1 [Example 187],E (E represents a pKi value of 7 or below (Ki of 100 nM or above)),E (E represents a pKi value of 7 or below (Ki of 100 nM or above)),B (B represents a pC50 value between 6.7 (included) and 7.5 (IC50 between 200 nM and 32 nM)),B (B represents pKi value between 9 and 10 (Ki between 1 nM and 0.1 nM)),A (A represents a value of 3 or above),C (C represents a value between 10×10^−6 and 30×10^−6 cm/sec),E (E represents a pKi value of 7 or below (Ki of 100 nM or above))
C=CC(=O)N1CC(CCn2c(=O)ccc3cnc(Nc4ccc(N5CCN(C(C)(C)C)CC5)cc4)nc32)C1 [Example 62],E (E represents a pKi value of 7 or below (Ki of 100 nM or above)),E (E represents a pKi value of 7 or below (Ki of 100 nM or above)),A (A represents a pIC50 value≥7.5 (IC50≤32 nM)),B (B represents pKi value between 9 and 10 (Ki between 1 nM and 0.1 nM)),A (A represents a value of 3 or above),B (B represents a value between 5×10^−6 and 10×10^−6 cm/sec),E (E represents a pKi value of 7 or below (Ki of 100 nM or above))
C=CC(=O)N1CC(CCn2c(=O)ccc3cnc(Nc4cnn(C5CCN(C)CC5)c4)nc32)C1 [Example 51],E (E represents a pKi value of 7 or below (Ki of 100 nM or above)),E (E represents a pKi value of 7 or below (Ki of 100 nM or above)),B (B represents a pC50 value between 6.7 (included) and 7.5 (IC50 between 200 nM and 32 nM)),B (B represents pKi value between 9 and 10 (Ki between 1 nM and 0.1 nM)),A (A represents a value of 3 or above),A (A represents a value below 5×10^−6 cm/sec),E (E represents a pKi value of 7 or below (Ki of 100 nM or above))
C=CC(=O)N1CCN(CCn2c(=O)ccc3cnc(Nc4cnn(Cc5ccccc5)c4)nc32)[C@@H](CC)C1 [Example 194],E (E represents a pKi value of 7 or below (Ki of 100 nM or above)),E (E represents a pKi value of 7 or below (Ki of 100 nM or above)),B (B represents a pC50 value between 6.7 (included) and 7.5 (IC50 between 200 nM and 32 nM)),B (B represents pKi value between 9 and 10 (Ki between 1 nM and 0.1 nM)),A (A represents a value of 3 or above),C (C represents a value between 10×10^−6 and 30×10^−6 cm/sec),E (E represents a pKi value of 7 or below (Ki of 100 nM or above))
